The target in this assay is T1, human β3 (Homo sapiens, UniProt P13945).
T1 construct: And then full length of human β3 gene was cloned using this fragment as a probe; expressed in transfected cells; host or cells: CHO cells (Chinese hamster ovary), pcDNA3 vector
The assay can be described thus: Human β3-agonist activity (cAMP in CHO cells transfected with human β3 gene). To be noted: for Emax: CHO, read-out: Intrinsic activity (%). The class given is cell-based. The method, then: Human β3-agonist Activity
Human β3-agonist activity was examined using CHO cells (chinese hamster ovarian cells) to which pcDNA3 (in vitrogen) cells inserted human β3 gene was transfected. Human β3 fragment was obtained by PCR using human fat tissue cDNA (supplied from Clontech) with a β3 primer [Krief et al, J. Clin. Invest.
The cells were cultured in a HAM F-12 medium containing 10% of fetal bovine serum, 400 μg/ml of Geneticin (Gibco BRL). 100 U/ml penicillin and 100 μg/ml streptomycin. 5×10^5 cells were placed on a 6-well plate and cultured for 24 hours, after which the medium was changed to a HAM F-12 medium without serum and was kept for 2 hours. Each test compound was first dissolved in DMSO, and then diluted with a HAM F-12 medium containing 1 mM isobutylmethyl xanthine and 1 mM ascorbic acid. A 10-fold dilution in the range of 10^−5 to 10^−12 M was added into the cell.
After culturing for 30 minutes, culture medium was withdrawn, 0.5 ml of 1 N NaOH was added and was kept for 20 minutes. And then 0.5 ml of 1 N acetic acid was added with subsequent agitation and centrifugation. Finally the concentration of cAMP were analyzed using cAMP EIA KIT (Cayman). […] Isoprotelenol was purchased from Research Biochimicals International.

Setting [1] is: cAMP, CHO cells with human β3, read-out: ED50 (the source's name).

Where a name gives a salt, the structure may show the parent alone. Read-outs that look alike come from different tables or passages of the source.

T1 sequence (P13945 whole entry, the tested form may be a part): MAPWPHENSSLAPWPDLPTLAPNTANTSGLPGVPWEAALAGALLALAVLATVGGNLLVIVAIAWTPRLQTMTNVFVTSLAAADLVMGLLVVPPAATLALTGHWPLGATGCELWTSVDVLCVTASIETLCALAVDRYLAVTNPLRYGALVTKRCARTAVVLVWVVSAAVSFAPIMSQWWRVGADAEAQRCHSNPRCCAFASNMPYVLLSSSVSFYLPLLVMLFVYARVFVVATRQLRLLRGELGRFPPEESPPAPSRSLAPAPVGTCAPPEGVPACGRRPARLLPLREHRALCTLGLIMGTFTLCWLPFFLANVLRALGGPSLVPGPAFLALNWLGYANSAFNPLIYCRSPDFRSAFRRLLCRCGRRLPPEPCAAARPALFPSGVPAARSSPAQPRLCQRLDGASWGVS

With `CS(=O)(=O)Nc1cc(C(O)CNCCOc2ccc3c(c2)[nH]c2ccccc23)ccc1OCc1ccccc1` (racemic) [Example 1, (±)-N-[5-[2-[2-(9H-Carbazol-2-yloxy)ethylamino]-1-hydroxyethyl]-2-benzyloxyphenyl]methanesulfonamide Hydrochloride], the EC50 was 340 nM and the Emax was found to be 80%.
Regarding `CS(=O)(=O)Nc1cc(C(O)CNCCOc2ccc3c(c2)[nH]c2ccccc23)ccc1F` (racemic) [Example 5, (±)-N-[5-[2-[2-(9H-Carbazol-2-yloxy)ethylamino]-1-hydroxyethyl]-2-fluorophenyl]methanesulfonamide Hydrochloride], the EC50 came out at 66 nM and the Emax was found to be 114%.
Taken in the same sequence, the figures for `CS(=O)(=O)Nc1cc(C(O)CNCCOc2ccc3c(c2)[nH]c2ccccc23)ccc1Cl` (racemic) [Example 6, (±)-N-[5-[2-[2-(9H-Carbazol-2-yloxy)ethylamino]-1-hydroxyethyl]-2-chlorophenyl]methanesulfonamide Hydrochloride] were 33 nM and 119%.
On to `O=S(=O)(Cc1ccccc1)Nc1cccc(C(O)CNCCOc2ccc3c(c2)[nH]c2ccccc23)c1` (racemic) [Example 8, (±)-N-[3-[2-[2-(9H-Carbazol-2-yloxy)ethylamino]-1-hydroxyethyl]phenyl]phenylmethanesulfonamide Hydrochloride], for which the EC50 is 720 nM and the Emax amounted to 47%.
With `CC(=O)Nc1ccc2c(c1)Cc1cc(OCCNCC(O)c3cccc(NS(C)(=O)=O)c3)ccc1-2` (racemic) [Example 10, (±)-N-[3-[2-[2-(9H-7-Acetylaminofluoren-2-yloxy)ethylamino]-1-hydroxyethyl]phenyl]methanesulfonamide Hydrochloride], the Emax worked out at 47%. Besides, the EC50 under setting [1] is 150 nM.
Taken in the same sequence, the figures for `CC(COc1ccc2c(c1)[nH]c1ccccc12)NCC(O)c1cccc(NS(C)(=O)=O)c1` (racemic) [Example 11, (±)-N-[3-[2-[[1-(9H-Carbazol-2-yloxy)propan-2R-yl]amino]-1-hydroxyethyl]phenyl]methanesulfonamide Hydrochloride] were 95% and 26 nM.
Take `CNS(=O)(=O)c1cccc(C(O)CNCCOc2ccc3c(c2)[nH]c2ccccc23)c1` (racemic) [Example 16, (±)-N-methyl-3-[2-[2-(9H-Carbazol-2-yloxy)ethylamino]-1-hydroxyethyl]benzenesulfonamide Hydrochloride]: the EC50 came to 30 nM and the Emax is 99%.
Taken in the same sequence, the figures for `O=CNc1cccc(C(O)CNCCOc2ccc3c(c2)[nH]c2ccccc23)c1` (racemic) [Example 17, (±)-N-[3-[2-[2-(9H-Carbazol-2-yloxy)ethylamino]-1-hydroxyethyl]phenyl]formamide Hydrochloride] were 910 nM and 53%.
Consider `O=[N+]([O-])c1cc(C(O)CNCCOc2ccc3c(c2)[nH]c2ccccc23)ccc1O` (racemic) [Example 18, (±)-2-[N-[2-(9H-Carbazol-2-yloxy)ethyl]amino]-1-(4-hydroxy-3-nitrophenyl)]ethanol Hydrochloride], for which the Emax was 90%. For the same compound, under setting [1], the EC50 is 32 nM.
`OC(CNCCOc1ccc2c(c1)[nH]c1ccccc12)c1ccccc1F` (racemic) [Example 28, (±)-2-[N-[2-(9H-Carbazol-2-yloxy)ethyl]amino]-1-(2-fluorophenyl)ethanol Hydrochloride]: the EC50 was 1000 nM and the Emax was determined as 97%.
On to `Oc1ccc(C(O)CNCCOc2ccc3c(c2)[nH]c2ccccc23)cc1` (racemic) [Example 29, (±)-2-[N-[2-(9H-Carbazol-2-yloxy)ethyl]amino]-1-(4-hydroxyphenyl)ethanol Hydrochloride], for which the EC50 was found to be 250 nM and the Emax stood at 120%.
Turning to `OC(CNCCOc1ccc2oc3ccccc3c2c1)c1ccccc1` (racemic) [Example 34, (±)-2-[N-[2-(Dibenzofuran-2-yloxy)ethyl]amino]-1-phenyl ethanol Hydrochloride], the EC50 was determined as 4600 nM and the Emax stood at 37%.
As to `CC(=O)Nc1ccc2c(c1)Cc1cc(OCCNCC(O)c3ccc(O)c(NS(=O)(=O)N(C)C)c3)ccc1-2` (racemic) [Example 45, (±)-N′-[5-[2-[2-(9H-7-Acetylaminofluoren-2-yloxy)ethylamino]-1-hydroxyethyl]-2-hydroxyphenyl]-N,N-dimethylsulfamide Hydrochloride], the Emax turned out to be 89%. Moreover, the EC50 under setting [1] was determined as 17 nM.
For `Nc1cccc(C(O)CNCCOc2ccc3c(c2)[nH]c2ccccc23)c1` (racemic) [Example 47, (±)2-[N-[2-(9H-Carbazol-2-yloxy)ethyl]amino]-1-(3-aminophenyl)]ethanol Hydrochloride], in that order: 86% and 2000 nM.
For the compound `CN(C)S(=O)(=O)Nc1cccc(C(O)CNCCOc2ccc3c(c2)[nH]c2ccccc23)c1` (racemic) [Example 48, (±)-N′-[3-[2-[2-(9H-Carbazol-2-yloxy)ethylamino]-1-hydroxyethyl]phenyl]-N,N-dimethylsulfamide Hydrochloride], the EC50 turned out to be 220 nM and the Emax came out at 73%.
Taken in the same sequence, the figures for `CS(=O)(=O)Nc1cc(C(O)CNCCOc2ccc3c(c2)oc2ccccc23)ccc1F` (racemic) [Example 55, (±)-N-[5-[2-[2-(Dibenzofuran-3-yloxy)ethylamino]-1-hydroxyethyl]2-fluorophenyl]methanesulfonamide Hydrochloride] were 230 nM and 76%.
As for `CS(=O)(=O)Nc1cc(C(O)CNCCOc2ccc3c(c2)sc2ccccc23)ccc1F` (racemic) [Example 56, (±)-N-[5-[2-[2-(Dibenzothiophen-3-yloxy)ethylamino]-1-hydroxyethyl]-2-fluorophenyl]methanesulfonamide Hydrochloride], the EC50 is 630 nM and the Emax turned out to be 97%.
With `CS(=O)(=O)Nc1cc(C(O)CNCCOc2ccc3c(c2)oc2ccccc23)ccc1Cl` (racemic) [Example 57, (±)-N-[5-[2-[2-(Dibenzofuran-3-yloxy)ethylamino]-1-hydroxyethyl]-2-chlorophenyl]methanesulfonamide Hydrochloride], the EC50 amounted to 230 nM and the Emax was 68%.
For `CS(=O)(=O)Nc1cc(C(O)CNCCOc2ccc3c(c2)sc2ccccc23)ccc1Cl` (racemic) [Example 58, (±)-N-[5-[2-[2-(Dibenzothiophen-3-yloxy)ethylamino]-1-hydroxyethyl]-2-chlorophenyl]methanesulfonamide Hydrochloride], in that order: 550 nM and 91%.
Taken in the same sequence, the figures for `CS(=O)(=O)Nc1cc(O)cc(C(O)CNCCOc2ccc3c(c2)[nH]c2ccccc23)c1` (racemic) [Example 62, (±)-N-[5-[2-[2-(9H-Carbazol-2-yloxy)ethylamino]-1-hydroxyethyl]-3-hydroxyphenyl]methanesulfonamide Hydrochloride] were 210 nM and 106%.
In the case of `CNS(=O)(=O)c1cc(C(O)CNCCOc2ccc3c(c2)[nH]c2ccccc23)ccc1O` (racemic) [Example 66, (±)-N-methyl-[5-[2-[2-(9H-Carbazol-2-yloxy)ethylamino]-1-hydroxyethyl]-2-hydroxy]benzenesulfonamide Hydrochloride], the Emax is 106%. Also, the EC50 under setting [1] worked out at 72 nM.
With `CC(=O)Nc1ccc2[nH]c3cc(OCCNCC(O)c4cccc(NS(C)(=O)=O)c4)ccc3c2c1.Cl` (racemic) [Example 68, (±)-N-[3-[2-[2-(9H-6-(Acetylamino)carbazol-2-yloxy]ethylamino]-1-hydroxyethyl]phenyl]methanesulfonamide Hydrochloride], the EC50 under setting [1] stood at 38 nM. For the same compound, where the note is “relative activity for isoproterenol, cAMP, CHO cells with human β3”, the “Intrinsic activity (%)” value amounted to 92%.
Take `CS(=O)(=O)Nc1cc(C(O)CNCCOc2ccc3c(c2)[nH]c2ccccc23)ccc1N` (racemic) [Example 82, (±)-N-[5-[2-[2-(9H-Carbazol-2-yloxy)ethylamino]-1-hydroxyethyl]-2-aminophenyl]methanesulfonamide Hydrochloride]: the EC50 came to 2800 nM and the Emax worked out at 130%.
Regarding `CN(Cc1ccccc1)S(=O)(=O)c1cc(C(O)CNCCOc2ccc3c(c2)[nH]c2ccccc23)ccc1O` (racemic) [Example 83, (±)-N-Methyl-N-benzyl-[5-[2-[2-(9H-carbazol-2-yloxy)ethylamino]-1-hydroxyethyl]-2-hydroxy]benzenesulfonamide Hydrochloride], the Emax stood at 79%. Moreover, the EC50 under setting [1] was 740 nM.
Taken in the same sequence, the figures for `CS(=O)(=O)Nc1cc(C(O)CNCCOc2ccc3c(c2)[nH]c2ccccc23)ccc1CO` (racemic) [Example 84, (±)-N-[5-[2-[2-(9H-Carbazol-2-yloxy)ethylamino]-1-hydroxyethyl]-2-(hydroxymethyl)phenyl]methanesulfonamide] were 71% and 58 nM.
In the case of `CS(=O)(=O)Nc1cc(C(O)CNCCOc2ccc3c(c2)[nH]c2ccccc23)ccc1Br` (racemic) [Example 85, (±)-N-[5-[2-[2-(9H-Carbazol-2-yloxy)ethylamino]-1-hydroxyethyl]-2-bromophenyl]methanesulfonamide], the Emax stood at 70%. Besides, the EC50 under setting [1] worked out at 56 nM.

Values taken from patent publication US6545053B1, “Tricyclic compounds and drug compositions containing same” (Asahi Kasei Kogyo Kabushiki Kaisha, priority 1996, dated 2003).
